Reference: patent US20120035221A1, “Method of Fungal Pathogen Control in Grass or Turf” (priority 2004, published 2012)

Legend:
Rhizoctonia solani = test: Brown Patch infection of bentgrass 'Crenshaw' turf flats (Example 6); type: in vivo; conditions: for % Brown Patch infection: imidacloprid alone 481 g/Ha
Procedure: Bentgrass var. ‘Crenshaw’ was seeded in 10 in.×12 in. (25 cm×30 cm) peat flats containing steam sterilized 80/20 greens mix. Flats were watered daily with an overhead misting system. Plots were fertilized on 11/20 with 200 ml of a 288 ppm 20-20-20 Regal Green fertilizer solution. Treatments were applied with a CO2 backpack sprayer at 2.0 gal./1000 ft^2 (i.e., 81.5 liters/1000 m^2) and a single 8003E nozzle. Imidacloprid was applied on 16 days after seeding and fungicides applied 21 days after seeding and 35 days after seeding. Plots were inoculated 18 days after seeding with 0.25 g of fescue seed infected with Rhizoctonia solani. Results are presented in Table 4 (where B+a number represents days after application of the herbicide component).

grass = test: Grass pot trial, dry weight and visual vigor under powdery mildew (Example 3); type: in vivo; conditions: 8 WAT, 1 to 5 scale, powdery mildew infestation, in words
Description: Six-inch (15-cm) diameter pots were filled to the rim with ProMix® BX potting soil and leveled off. Grass seed (0.5 g) was distributed evenly over the whole mix surface. The seed was watered in very gently. The grass was fertilized once 17 days later with Peters 20-10-20 at 100 ppm. The first cut was done on 11 days later; the grass was allowed to re-grow and cut 26 days later. Cutting was done at 2 in. (5 cm) height, using a round plastic cylinder that fit over the pot. The cut was made with hedge sheers and finished with scissors. Treatments were applied one day later using a volume of 20 ml per pot, followed with 117 ml of water/pot. The grass clippings were harvested an.d dried for dry weight determination 2 weeks after treatment (“WAT”) and 4 WAT. The grass was rated visually for vigor 8 WAT, using a 1 to 5 scale, before harvesting at the soil line. Dry weight and vigor data were subjected to analysis of variance (Fisher's Protected LSD, P=0.05).
The grass had germinated well within 30 days. Powdery mildew was noticed on some plants at 43 days after seeding, and became widespread in the plot. The powdery mildew coating appeared to grow more densely on the untreated plants. […] The invasion of the powdery mildew prevented the assessment of imidacloprid in the absence of pest pressure but it was serendipitously discovered that imidacloprid could have an effect on disease resistance in turf.

Curvularia [1] = test: Curvularia on bermudagrass 'TifEagle', golf course field trial (Example 8); type: in vivo; conditions: for % turf infected with disease (Curvularia): imidacloprid 0.4 lb/A single application, fungicide programs every two weeks
Procedure: Established bermudagrass (cv. ‘TifEagle’) on a golf course in Florida was treated in late spring with imidacloprid at 0.4 lb/A (i.e., 0.45 kg/Ha). For comparison, two different fungicide spray programs were applied to nearby plots. The two fungicide spray programs were (1) fosetyl+iprodione at (4 oz.+4 oz.) per 1000 ft^2 [(1.2 g+1.2 g) per m^2] alternated with fosetyl+trifloxystrobin at (4 oz.+0.15 oz.) per 1000 ft^2 [(1.2 g+46 mg) per m^2], and (2) fosetyl+iprodione at (4 oz.+4 oz.) per 1000 ft^2 [(1.2 g+1.2 g) per m^2] alternated with flutolanil at 2.2 oz product/1000 ft^2 (0.67 g) per m^2). The fungicide applications were made every two weeks. In comparison, the imidacloprid-treated plots received only a single application of active ingredient.
At the time of treatment, Curvularia disease was just beginning to develop (i.e., the mean percent infection in all plots was 3% of the turf cover). The spread of the disease was monitored weekly for twelve weeks, and turf quality, measured on a 0 to 9 scale (0=dead turf and 9=perfect quality). […] Effects of the various treatments on disease incidence are described in Table 6 (where A+a number represents days after application of imidacloprid). Data are expressed as % turf infected with disease.

powdery mildew = test: Greenhouse trial, powdery mildew severity on Kentucky bluegrass (Example 4); type: in vivo, Erysiphe graminis; conditions: for Powdery mildew rating: 1 = best (no disease) to 9 = dead
Pythium aphandermatum = test: Pythium infection of bentgrass 'Crenshaw' turf flats (Example 2); type: in vivo, P. aphanidermatum; conditions: imidacloprid alone 481 g/Ha
Procedure: Bentgrass var. ‘Crenshaw’ was seeded in 10 in.×12 in. (ca. 25 cm×30 cm) peat flats containing steam sterilized 80/20 greens mix. Flats were watered daily with an overhead misting system. Plots were fertilized on 26 days later with 200 ml of a 288 ppm 20-20-20 Regal Green fertilizer solution. Treatments were applied with a CO2 backpack sprayer at 2.0 gal./1000 ft^2 (i.e., 81.5 liters/1000 m^2), with a single 8003E nozzle. lmidacloprid (481 g/Ha) was applied the same day and mancozeb fungicide was applied one week later. Two doses of each fungicide were tested. Plots were inoculated with Pythium aphandermatum 2 days after the fungicides were applied by placing two 1-in (2.5-cm) pieces of infested fescue leaves on each flat. Results are presented in Table 2 (where B+a number represents days after application of the herbicide component).

Curvularia [2] = test: Disease infection of turf flats treated with Merit 75 WP (Example 5); type: in vivo; conditions: for percent infection (Curvularia): Kentucky bluegrass
Procedure: Four sets of twenty-four 10 in.×12 in. (25 cm×30 cm) flats were filled with sterilized sand and each set was seeded with either Kentucky bluegrass, Crenshaw L-93 bentgrass, bermudagrass, or K-31 tall fescue. Each flat was fertilized weekly with 20-20-20 soluble fertilizer at 0.144 g per 200 ml of water (equivalent to 4 lbs/year/acre). The trial was replicated once.
Twelve flats in each set were treated with Merit 75 WP equivalent to 8.6 oz/acre per 80 gal. (ca. […] per 100 liter) of water (spray application) for each turf variety and twelve flats remained untreated. Replicate 1 was treated 25 days after seeding and Replicate 2 was treated 28 days after seeding. Disease outbreaks began approximately the time of treatment. Assessments of the infection percentage were done at 13 and 25 days after treatment. […] The percent disease infection at the first and second assessments in the first trial was 22 and 26%, respectively, while the percent infection in the imidacloprid treated flats was 1 and 8% at the first and second assessment dates, respectively. In the second trial, disease pressure was lower, but the untreated flats had 3 and 8% infection at the first and second assessment dates, whereas the imidacloprid treated flats had 0.5 and 2% at the two assessment dates.

Pythium aphanedermatum = test: Pythium infection of bentgrass sod flats (Example 7); type: in vivo; conditions: for % Pythium: imidacloprid alone 481 g/Ha
Procedure: Bentgrass sod var. ‘Crenshaw’ was cut and placed in 6″×7″ (15 cm×17.5 cm) peat flats containing steam-sterilized 80/20 greens mix during the spring. To create conditions favorable for the development of Pythium, the flats were watered daily with an overhead misting system to provide conditions favorable to the development on disease. In addition, plots were fertilized weekly with 100 ml of a 244 ppm 20-20-20 Regal Green fertilizer solution. Imidacloprid at 481 g/Ha was applied four days after being placed in the flats. Fungicides were applied ten days after application of imidacloprid with a CO2 backpack sprayer at 2.0 gal. /1000 ft^2 (i.e., 81.5 liters/1000 m^2) using a single 8003E nozzle. Plots were inoculated with 2 one-inch […] sections of Pythium aphanedermatum-infested fescue leaves three days after application of the fungicides, and the percent infection in the plots was measured for the next 20 days. Results are presented in Table 5 (where A+a number represents days after application of imidacloprid).

[3] = test system: Sclerotinia homoeocarpa (Dollar Spot); test: Dollar Spot infection of bentgrass 'Crenshaw' turf flats (Example 1); type: in vivo; conditions: for % Dollar Spot: imidacloprid alone 481 g/Ha
Procedure: Bentgrass var. ‘Crenshaw’ was seeded in 10 in.×12 in. (25 cm×30 cm) peat flats containing steam sterilized 80/20 greens mix. Flats were watered daily with an overhead misting system. Plots were fertilized with 200 ml of a 288 ppm 20-20-20 Regal Green fertilizer solution 23 days later. lmidacloprid (481 g/Ha) was applied according to the Merit® insecticide label the same day that fertilizer was applied. Fungicide treatments were applied 7 days later with a CO2 backpack sprayer at 2.0 gal./1000 ft^2 (i.e., 81.5 liters/1000 m^2) with a single 8003E nozzle. Two doses of each fungicide were tested. Plots were inoculated with Sclerotinia homoeocarpa (Dollar Spot) 2 days after the fungicides were applied by placing two 1-in. (2.5-cm) pieces of infested fescue leaves on each flat. Results are presented in Table 1 (where B+a number represents days after application of the herbicide component).

O=[N+]([O-])NC1=NCCN1Cc1ccc(Cl)nc1 [imidacloprid]
% Brown Patch infection (Rhizoctonia solani; B + 6): 53.3% | % Brown Patch infection (Rhizoctonia solani; B + 8): 73.3% | % Brown Patch infection (Rhizoctonia solani; B + 10): 80.0% | effect of imidacloprid alone on the disease (Brown Patch) (Rhizoctonia solani; in words): no effect on the disease | visual vigor ratings (grass): visual vigor ratings indicate a benefit from the imidacloprid treatments | % turf infected with disease (Curvularia) (Curvularia [1]; A + 1): 1% | % turf infected with disease (Curvularia) (Curvularia [1]; A + 8): 1% | % turf infected with disease (Curvularia) (Curvularia [1]; A + 15): 1% | % turf infected with disease (Curvularia) (Curvularia [1]; A + 22): 0% | % turf infected with disease (Curvularia) (Curvularia [1]; A + 29): 0% | % turf infected with disease (Curvularia) (Curvularia [1]; A + 37): 0% | % turf infected with disease (Curvularia) (Curvularia [1]; A + 43): 0% | % turf infected with disease (Curvularia) (Curvularia [1]; A + 51): 16% | % turf infected with disease (Curvularia) (Curvularia [1]; A + 58): 21% | % turf infected with disease (Curvularia) (Curvularia [1]; A + 66): 54% | % turf infected with disease (Curvularia) (Curvularia [1]; A + 72): 30% | % turf infected with disease (Curvularia) (Curvularia [1]; A + 79): 34% | % turf infected with disease (Curvularia) (Curvularia [1]; A + 86): 38% | % turf infected with disease (Curvularia) (Curvularia [1]; A + 94): 16% | development of Curvularia disease incidence compared with the other plots (Curvularia [1]; after 8 WAT to end of trial, in words): increased at a much slower rate than did the untreated control | Powdery mildew rating (powdery mildew; 2 Weeks after treatment, 0.25 lbs/A (0.28 kg/Ha)): 3.4 | Powdery mildew rating (powdery mildew; 2 Weeks after treatment, 0.4 lbs/A (0.45 kg/Ha)): 3.4 | Powdery mildew rating (powdery mildew; 2 Weeks after treatment, 1.0 lbs/A (1.12 kg/Ha)): 3.4 | disease severity rating (powdery mildew) (powdery mildew; 6 WAT evaluation, treatments of imidacloprid, untreated 4.2, 1 to 9 scale): 3.1 | Powdery mildew rating (powdery mildew; 6 Weeks after treatment, 0.25 lbs/A (0.28 kg/Ha)): 3.2 | Powdery mildew rating (powdery mildew; 6 Weeks after treatment, 0.4 lbs/A (0.45 kg/Ha)): 3.1 | Powdery mildew rating (powdery mildew; 6 Weeks after treatment, 1.0 lbs/A (1.12 kg/Ha)): 3.1 | % Pythium (Pythium aphandermatum; B + 6): 11.7% | % Pythium (Pythium aphandermatum; B + 8): 20.0% | % Pythium (Pythium aphandermatum; B + 14): 36.7% | percent infection (Curvularia) (Curvularia [2]; first trial, first assessment (13 days after treatment), untreated 22%): 1% | percent infection (Curvularia) (Curvularia [2]; first trial, second assessment (25 days after treatment), untreated 26%): 8% | percent infection (Curvularia) (Curvularia [2]; second trial, first assessment, untreated 3%): 0.5% | percent infection (Curvularia) (Curvularia [2]; second trial, second assessment, untreated 8%): 2% | control of the other diseases on the other turf varieties (Curvularia [2]; bentgrass, bermudagrass, tall fescue, either trial, in words): did not provide control of the other diseases | control of Curvularia on the Kentucky bluegrass (Curvularia [2]; both replicates, in words): good control of Curvularia | % Pythium (Pythium aphanedermatum; A + 8): 17.5% | % Pythium (Pythium aphanedermatum; A + 11): 32.5% | % Pythium (Pythium aphanedermatum; A + 15): 40.0% | % Pythium (Pythium aphanedermatum; A + 18): 38.8% | % Pythium (Pythium aphanedermatum; A + 22): 25.0% | % Pythium (Pythium aphanedermatum; A + 28): 12.0% | Pythium in plots treated with imidacloprid alone versus untreated plots (Pythium aphanedermatum; from 11 days after treatment on, in words): much less Pythium than did the untreated plots | % Dollar Spot ([3]; B + 7): 16.7% | % Dollar Spot ([3]; B + 10): 28.3% | % Dollar Spot ([3]; B + 13): 35.0% | % Dollar Spot ([3]; B + 17): 38.3% | % Dollar Spot ([3]; B + 21): 41.7% | % Dollar Spot ([3]; B + 24): 48.3% | effect of imidacloprid alone on incidence of disease (Dollar Spot) ([3]; imidacloprid alone, in words): no affect on incidence of disease
